Experiments:
Assay type in all cases: cell-based
[1] = tested on: Human bone marrow-derived mesenchymal stem cells (hMSC); experiment: Paracrine factor release amount test 1: Angiogenin (ANG) in culture supernatant by ELISA; settings: 5 μM for 48 hr, then 48 hr in compound-free medium, relative to 2D DMSO control
Protocol: (§1) Human bone marrow-derived mesenchymal stem cells (hMSC, manufactured by PromoCell) were precultured by a single layer culture method (2D) using Mesenchymal Stem Cell Growth Medium 2 (manufactured by PromoCell). hMSCs were suspended in the same medium. In three-dimensional culture method (3D), hMSCs were seeded at 5×10^5 cells/2 mL/well on a cell-non-adhesive 6-well EZSPHERE plate (manufactured by AGC TECHNO GLASS, #4810-900) having a depression on the bottom surface. In 2D, hMSCs were seeded on a 6-well flat bottom plate (manufactured by Corning Incorporated, #3516) at 5×10^5 cells/2 Continuously, compounds k-1:B-1, k-1:D-1, k-1:J-1 dissolved in DMSO were added at 2 μL/well to a final concentration of 5 μM, and the mixture was cultured in an incubator at 37° C., 5% CO2 for 48 hr. As a control, DMSO was added at a final concentration of 0.05%. After 48 hr, the medium was exchanged with a medium not containing the compound, and the cells were cultured in an incubator at 37° C., 5% CO2. After 48 hr, the culture supernatant was recovered. The number of cells at the time of recovery of the culture supernatant was measured by dispersing the cells in single cells using Detach Kit (manufactured by PromoCell), suspending a part thereof in Trypan Blue (manufactured by Wako Pure Chemical Industries, Ltd.) and counting the number of viable cells using TC-20 (manufactured by BIO-RAD).
Angiogenin (ANG), a cytokine which is one kind of paracrine factor contained in the culture supernatant, was quantified using a plate reader. For the quantification, Human Angiogenin ELISA Kit (manufactured by Abcam, #ab99970) was used.
(§2) The concentration of ANG in the culture supernatant was normalized by the cell count, and the relative values for the control group cultured in 2D are shown in Table 4. As a result, the secretion amount increased in both 2D culture and 3D culture by adding compounds k-1:B-1, k-1:D-1, and compound k-1:J-1. Therefrom it was clarified that the secretion of the paracrine factor can be promoted by adding the compounds k-1:B-1, k-1:D-1, and compound k-1:J-1 to the mesenchymal stem cells.

[2] = tested on: Human bone marrow-derived mesenchymal stem cells (hMSC); experiment: Paracrine factor release amount test 2: Stanniocalcin-1 (STC-1) in culture supernatant by ELISA; settings: 5 μM for 48 hr, then 48 hr in compound-free medium, relative to 2D DMSO control
Protocol: (§3) Human bone marrow-derived mesenchymal stem cells (hMSC, manufactured by PromoCell) were precultured by a single layer culture method (2D) using Mesenchymal Stem Cell Growth Medium 2 (manufactured by PromoCell). hMSCs were suspended in the same medium. In three-dimensional culture method (3D), hMSCs were seeded at 5×10^5 cells/2 mL/well on a cell-non-adhesive 6-well EZSPHERE plate (manufactured by AGC TECHNO GLASS, #4810-900) having a depression on the bottom surface. In 2D, hMSCs were seeded on a 6-well flat bottom plate (manufactured by Corning Incorporated, #3516) at 5×10^5 cells/2 mL/well. Continuously, compound k-1:B-1 dissolved in DMSO was added at 2 μL/well to a final concentration of 5 μM, and the mixture was cultured in an incubator at 37° C., 5% CO2 for 48 hr. […] The number of cells at the time of recovery of the culture supernatant was measured by dispersing the cells in single cells using Detach Kit (manufactured by PromoCell), suspending a part thereof in Trypan Blue (manufactured by Wako Pure Chemical Industries, Ltd.) and counting the number of viable cells using TC-20 (manufactured by BIO-RAD).
Stanniocalcin-1 (STC-1), a cytokine which is one kind of paracrine factor contained in the culture supernatant, was quantified using a plate reader. For the quantification, Human Stanniocalcin ELISA Kit (manufactured by Abcam, #ab213829) was used. […]

[3] = tested on: Human bone marrow-derived mesenchymal stem cells (hMSC); experiment: Paracrine factor release amount test 3: VEGF in culture supernatant by ELISA; settings: 5 μM for 48 hr, then 48 hr in compound-free medium, relative to 2D DMSO control
Protocol: as §1, with “5×10^5 cells/2 mL/well. Continuously, compounds” for “5×10^5 cells/2 Continuously, compounds”
Vascular endothelial growth factor (VEGF), a cytokine which is one kind of paracrine factor contained in the culture supernatant, was quantified using a plate reader. For the quantification, Human VEGF ELISA Kit (manufactured by Abcam, #ab100662) was used.
as §2, with “VEGF” for “ANG”, “7.” for “4.”

[4] = tested on: Human bone marrow-derived mesenchymal stem cells (hMSC); experiment: Paracrine factor release under inflammation stimulation (TNFα): TSG-6 in culture supernatant by ELISA; settings: 5 μM for 48 hr, then 48 hr with 10 ng/mL TNFα only, relative to 2D DMSO control
Protocol: as §3, with “k-1:J-1” for “k-1:B-1”, “hr. As a control, DMSO was added at a final concentration of 0.05%.” for “hr.”
Tumor necrosis factor-inducible gene 6 protein (TSG-6), a cytokine which is one kind of paracrine factor contained in the culture supernatant, was quantified using a plate reader. […]

[5] = tested on: Human bone marrow-derived mesenchymal stem cells (hMSC); experiment: Paracrine factor release under inflammation stimulation (TNFα): MCP-1 in culture supernatant by flow cytometer; settings: 5 μM for 48 hr, then 48 hr with 10 ng/mL TNFα only, relative to 2D DMSO control
Protocol: as §3, with “mL/well.” for “mL/well. Continuously, compound k-1:B-1 dissolved in DMSO was added at 2 μL/well to a final concentration of 5 μM, and the mixture was cultured in an incubator at 37° C., 5% CO2 for 48 hr.”
Monocyte Chemotactic Protein-1 (MCP-1), a cytokine which is one kind of paracrine factor contained in the culture supernatant, was quantified using a flow cytometer. The quantification analysis was performed using BD™ CBA Flex Set (manufactured by BD 558287) according to the protocol of BD. […]

SMILES | ANG, relative value of secretion amount (pg) per 10000 cells ([1]; 2D culture) | ANG, relative value of secretion amount (pg) per 10000 cells ([1]; 3D culture) | STC-1, relative value of secretion amount (pg) per 10000 cells ([2]; 2D culture) | STC-1, relative value of secretion amount (pg) per 10000 cells ([2]; 3D culture) | VEGF, relative value of secretion amount (pg) per 10000 cells ([3]; 2D culture) | VEGF, relative value of secretion amount (pg) per 10000 cells ([3]; 3D culture) | TSG-6, relative value of secretion amount (pg) per 10000 cells ([4]; 2D culture) | TSG-6, relative value of secretion amount (pg) per 10000 cells ([4]; 3D culture) | MCP-1, relative value of secretion amount (pg) per 10000 cells ([5]; 2D culture) | MCP-1, relative value of secretion amount (pg) per 10000 cells ([5]; 3D culture)
CCC(=NNC(=O)C(C)Nc1ccccc1)c1ccc(O)c(C)c1O (racemic) [k-1:B-1] | 1.34 | 1.38 | 2.67 | 8.95 | 4.40 | 3.59 |  |  |  | 
CCC(=NNC(=O)CNc1cccc(O)c1)c1ccc(O)c(C)c1O [k-1:D-1] |  | 1.50 |  |  |  | 3.27 |  |  |  | 
CCC(=NNC(=O)NCc1cccc(O)c1)c1ccc(O)c(C)c1O [k-1:J-1] |  | 1.38 |  |  |  | 6.18 | 1.56 | 3.21 | 0.85 | 1.41

Source: patent US20210353683A1, “ADDITIVE FOR MEDIUM FOR PROMOTING PRODUCTION OF PARACRINE FACTOR” (NISSAN CHEMICAL CORPORATION, priority 2018, published 2021)
